Legend:
Format in all cases: in vivo
Parameters in all cases: key: 1=total damage; 9=no action; Ratings of from 1 to 4 (especially from 1 to 3) indicate good to very good herbicidal action
Avena [1] = test: Pre-emergence herbicidal action (Example B1); conditions: 2000 g a.i./ha, sprayed immediately after sowing, evaluated after 3 weeks, scale of nine ratings
Experimental: (§1) Monocotyledonous and dicotyledonous test plants are sown in standard soil in plastics pots. Immediately after sowing, the test compounds, each in the form of an aqueous suspension or emulsion prepared from a 25% emulsifiable concentrate (Example F1, c) in WO 97/34485, pages 9 and 10), are applied by spraying at a rate of application of 2000 g of active ingredient/ha (500 liters water/ha). The test plants are then grown in a greenhouse under optimum conditions. After 3 weeks' test duration, the test is evaluated in accordance with a scale of nine ratings (1=total damage, 9=no action). Ratings of from 1 to 4 (especially from 1 to 3) indicate good to very good herbicidal action.
(§2) Test plants: Avena, Setaria, Sinapis, Stellaria

Sinapis [2] = test: Pre-emergence herbicidal action (Example B1); conditions: 2000 g a.i./ha, sprayed immediately after sowing, evaluated after 3 weeks, scale of nine ratings
Experimental: as §1, §2

Stellaria [3] = test: Pre-emergence herbicidal action (Example B1); conditions: 2000 g a.i./ha, sprayed immediately after sowing, evaluated after 3 weeks, scale of nine ratings
Experimental: as §1, §2

Setaria [4] = test: Pre-emergence herbicidal action (Example B1); conditions: 2000 g a.i./ha, sprayed immediately after sowing, evaluated after 3 weeks, scale of nine ratings
Experimental: as §1, §2

Avena [5] = test: Post-emergence herbicidal action (Example B2); conditions: 2000 g a.i./ha, sprayed at 4- to 6-leaf stage, evaluated after approximately 18 days, scale of nine ratings
Experimental: (§3) Monocotyledonous and dicotyledonous test plants are grown in a greenhouse in plastics pots containing standard soil and at the 4- to 6-leaf stage are sprayed with an aqueous suspension or emulsion of the test substances of formula I, prepared from a 25% emulsifiable concentrate (Example F1, c) in WO 97/34485, pages 9 and 10), at a rate of application corresponding to 2000 g of active ingredient/ha (500 liters water/ha). The test plants are then grown on in the greenhouse under optimum conditions. After approximately 18 days' test duration, the test is evaluated in accordance with a scale of nine ratings (1=total damage, 9=no action). Ratings of from 1 to 4 (especially from 1 to 3) indicate good to very good herbicidal action.
as §2

Sinapis [6] = test: Post-emergence herbicidal action (Example B2); conditions: 2000 g a.i./ha, sprayed at 4- to 6-leaf stage, evaluated after approximately 18 days, scale of nine ratings
Experimental: as §3, §2

Stellaria [7] = test: Post-emergence herbicidal action (Example B2); conditions: 2000 g a.i./ha, sprayed at 4- to 6-leaf stage, evaluated after approximately 18 days, scale of nine ratings
Experimental: as §3, §2

Setaria [8] = test: Post-emergence herbicidal action (Example B2); conditions: 2000 g a.i./ha, sprayed at 4- to 6-leaf stage, evaluated after approximately 18 days, scale of nine ratings
Experimental: as §3, §2

SMILES	Pre-emergence action: Avena (rating) (Avena [1])	Pre-emergence action: Sinapis (rating) (Sinapis [2])	Pre-emergence action: Stellaria (rating) (Stellaria [3])	Pre-emergence action: Setaria (rating) (Setaria [4])	Post-emergence action: Avena (rating) (Avena [5])	Post-emergence action: Sinapis (rating) (Sinapis [6])	Post-emergence action: Stellaria (rating) (Stellaria [7])	Post-emergence action: Setaria (rating) (Setaria [8])
CCOC(=O)CCCn1c(-c2nn(C)c(OC(F)F)c2Cl)c(F)cc(Cl)c1=O [Example 1.205]	1	1	1	1	1	1	1	1
CCC(=O)Cn1c(-c2nn(C)c(OC(F)F)c2Cl)c(F)cc(Cl)c1=O [Example 1.302]	1	1	1	1	1	1	1	1
COn1c(-c2nn(C)c(OC(F)F)c2Cl)c(F)cc(Cl)c1=O [Example 1.400]	1	1	1	1	1	1	1	2
C#CCn1c(-c2nn(CC)c(OC(F)F)c2Cl)c(F)cc(Cl)c1=O [Example 7.100]	1	1	1	1	1	1	1	1
Cn1nc(-c2c(F)cc(Cl)c(=O)n2C)c(Cl)c1C(F)(F)F [Example 9.002]	1	1	1	3	1	1	1	3
C#CCn1c(-c2nn(C)c(C(F)(F)F)c2Cl)c(F)cc(Cl)c1=O [Example 9.100]	1	1	1	1	2	1	1	2
C#CCn1c(-c2nn(C)c(C(F)(F)F)c2Br)c(F)cc(Cl)c1=O [Example 10.100]	1	1	1	1	1	1	1	2
C#CCn1c(-c2nn(C)c(S(C)(=O)=O)c2C)c(F)cc(Cl)c1=O [Example 28.100]	1	1	1	1	1	1	1	1

Source: patent US20020055639A1, “Pyrazole derivatives as herbicides” (priority 1997, published 2002)
